Measured values taken from publication PMC10648541, “Design, Synthesis, and Antiproliferative Activity of Selective Histone Deacetylases 6 Inhibitors Containing a Tetrahydropyridopyrimidine Scaffold” (Molecules, 2023).
Read-outs that look alike come from different tables or passages of the source.

Experiments:
HCT116 = test: Antiproliferative assay (Alamar blue, 72 h), HCT116; assay type: cell-based; details: Homo sapiens, HCT-116, HCT116 cells, three independent experiments, SD < 10%, read-out: Antiproliferative effect IC50, HCT116
RPMI-8226 = test: Antiproliferative assay (Alamar blue, 72 h), RPMI-8226; assay type: cell-based, human; details: RPMI-8226 cells, three independent experiments, SD < 10%, read-out: Antiproliferative effect IC50, RPMI-8226
Protocol: The cells were cultured in IMDM (Gibco) medium with 20% FBS (Lonsera), 100 U/mL penicillin, and 100 µg/mL streptomycin (Solarbio). All cells were maintained at 37 °C in a humidified atmosphere of 5% CO2 in air. Briefly, 100 µL cell suspension or completed medium was plated into a 96-well plate. Compounds were added and incubated for 72 h. Then, 22 µL Alamar blue solution (1 mM) was pipetted into each well of a 96-well plate, and the plate was incubated for an additional 5~6 h. The absorbance (OD) was read at 530/590 nm. Data were normalized to vehicle groups (DMSO) and represented as the means of three independent measurements with standard errors of <20%. The IC50 values were calculated using Prism 5.0.

HDAC1 = biological target: T1, HDAC1 (Homo sapiens, UniProt Q13547); test: In vitro HDAC enzyme assay (Reaction Biology Corporation), HDAC1; assay type: biochemical; details: Table 1; duplicate, SD < 15%
T1 construct: purchased Reaction Biology Corporation
T1 sequence (Q13547 whole entry): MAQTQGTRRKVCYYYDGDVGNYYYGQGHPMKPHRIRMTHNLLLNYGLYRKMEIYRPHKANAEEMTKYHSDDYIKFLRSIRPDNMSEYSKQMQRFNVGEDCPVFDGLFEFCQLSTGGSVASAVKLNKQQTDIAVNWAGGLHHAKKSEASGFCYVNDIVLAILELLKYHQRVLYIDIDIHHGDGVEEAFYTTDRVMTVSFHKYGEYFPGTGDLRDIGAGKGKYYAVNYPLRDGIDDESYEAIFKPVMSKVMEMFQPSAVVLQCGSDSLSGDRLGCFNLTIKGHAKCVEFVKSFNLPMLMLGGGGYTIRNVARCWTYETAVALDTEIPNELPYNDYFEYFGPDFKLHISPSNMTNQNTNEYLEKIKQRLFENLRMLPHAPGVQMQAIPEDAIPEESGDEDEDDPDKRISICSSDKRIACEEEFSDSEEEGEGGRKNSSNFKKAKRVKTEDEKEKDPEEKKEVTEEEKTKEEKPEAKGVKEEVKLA

HL60 = test: Antiproliferative assay (Alamar blue, 72 h), HL60; assay type: cell-based; details: Homo sapiens, HL-60, HL60 cells, three independent experiments, SD < 10%, read-out: Antiproliferative effect IC50, HL60
[1] = system: acetylated histone 3 (H3); test: Western blot, acetylated histone 3 in RPMI-8226 cells; assay type: cell-based, human; details: 24 h, 10 μM, compared to the vehicle
Protocol: (§1) RPMI-8226 cells (1 × 10^6) were seeded overnight and incubated with compound 8f for 24 h on indicated concentrations. Cell extract was prepared by lysing cultured cells with a mammalian protein extraction reagent supplemented with EDTA-free protease inhibitor for 15 min. SDS-PAGE and immunoblot analysis were conducted as described. Antibodies for Ac-H3 (abcom, AB32129) and Ac-ɑ-tubulin (Cell Signaling, 2144) were used.

acetylated α-tubulin = test: Western blot, acetylated α-tubulin in RPMI-8226 cells; assay type: cell-based, human; details: 24 h, 10 μM, compared to the vehicle
Protocol: as §1

HDAC6 = biological target: T2, HDAC6 (Homo sapiens, UniProt Q9UBN7); test: In vitro HDAC enzyme assay (Reaction Biology Corporation), HDAC6; assay type: biochemical; details: Table 1
T2 construct: purchased Reaction Biology Corporation
T2 sequence (Q9UBN7 1-1215): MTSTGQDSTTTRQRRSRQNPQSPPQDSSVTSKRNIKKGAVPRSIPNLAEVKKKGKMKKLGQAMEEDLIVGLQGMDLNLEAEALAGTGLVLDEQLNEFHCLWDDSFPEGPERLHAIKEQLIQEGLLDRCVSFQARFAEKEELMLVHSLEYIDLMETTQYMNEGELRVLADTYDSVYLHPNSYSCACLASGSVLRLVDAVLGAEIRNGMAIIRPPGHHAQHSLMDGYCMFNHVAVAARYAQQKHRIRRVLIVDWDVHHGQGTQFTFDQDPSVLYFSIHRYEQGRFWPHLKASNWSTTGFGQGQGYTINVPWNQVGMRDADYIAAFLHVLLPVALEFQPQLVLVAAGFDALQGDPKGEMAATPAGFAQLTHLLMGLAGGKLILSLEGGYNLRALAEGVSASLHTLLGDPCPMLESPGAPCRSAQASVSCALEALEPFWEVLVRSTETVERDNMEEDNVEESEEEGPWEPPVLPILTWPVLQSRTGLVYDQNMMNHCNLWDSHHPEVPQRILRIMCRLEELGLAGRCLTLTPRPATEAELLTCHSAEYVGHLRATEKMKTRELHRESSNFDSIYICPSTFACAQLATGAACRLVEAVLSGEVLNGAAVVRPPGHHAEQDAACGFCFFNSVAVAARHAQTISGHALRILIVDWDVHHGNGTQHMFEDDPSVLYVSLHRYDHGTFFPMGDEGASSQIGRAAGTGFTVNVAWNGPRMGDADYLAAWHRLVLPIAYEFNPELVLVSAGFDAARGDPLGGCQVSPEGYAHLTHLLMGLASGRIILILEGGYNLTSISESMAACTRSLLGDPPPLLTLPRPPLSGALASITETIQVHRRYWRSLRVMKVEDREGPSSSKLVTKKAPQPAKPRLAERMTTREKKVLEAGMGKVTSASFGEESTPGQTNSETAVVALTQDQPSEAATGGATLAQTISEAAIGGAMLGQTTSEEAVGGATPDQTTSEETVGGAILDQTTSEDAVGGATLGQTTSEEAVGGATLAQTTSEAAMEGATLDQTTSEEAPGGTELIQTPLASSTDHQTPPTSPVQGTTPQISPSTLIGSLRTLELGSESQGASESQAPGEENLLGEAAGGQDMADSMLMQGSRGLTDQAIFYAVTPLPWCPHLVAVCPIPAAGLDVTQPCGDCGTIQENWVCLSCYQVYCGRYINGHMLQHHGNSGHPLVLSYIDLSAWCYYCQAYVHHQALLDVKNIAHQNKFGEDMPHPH

Row | SMILES | IC50 (HCT116) | melting point | IC50 (RPMI-8226; Homo sapiens) | IC50 (HL60) | further results
1 | COc1ccc(-c2nc3c(c(-c4ccc(OC)cc4)n2)CCN(C(=O)CCCCCCC(=O)NO)C3)cc1 [Compound 8c, 8-(2,4-Bis(4-methoxyphenyl)-5,8-dihydropyrido [3,4-d]pyrimidin-7(6H)-yl)-N-hydroxy-8-oxooctanamide] | 4.72 µM | 117 to 118 °C | 4.63 µM | 3.78 µM | IC50 (HDAC1): 0.472 µM
2 | Cc1ccc(-c2nc3c(c(-c4ccc(C)cc4)n2)CCN(C(=O)CCCCCCC(=O)NO)C3)cc1 [Compound 8b, 8-(2,4-di-p-tolyl-5,8-dihydropyrido [3,4-d]pyrimidin-7(6H)-yl)-N-hydroxy-8-oxooctanamide] |  | 110 to 112 °C |  |  | 
3 | O=C(CCCCCCC(=O)N1CCc2c(nc(-c3ccccc3)nc2-c2ccccc2)C1)NO [Compound 8a, 8-(2,4-Diphenyl-5,8-dihydropyrido [3,4-d]pyrimidin-7(6H)-yl)-N-hydroxy-8-oxooctanamide] | 23.4 µM | 115 to 117 °C | 16.3 µM | 12.5 µM | 
4 | O=C(CCCCCCC(=O)Nc1ccccc1)NO [SAHA, reference compound] |  |  |  |  | levels of acetylated histone H3 [1]: increased levels of both acetylated α-tubulin and acetylated histone H3 significantly; IC50 (RPMI-8226): 0.66 µM; levels of acetylated α-tubulin (acetylated α-tubulin): increased levels of both acetylated α-tubulin and acetylated histone H3 significantly
5 | O=C(CCCCCCNC(=O)c1cnc(N(c2ccccc2)c2ccccc2)nc1)NO [Compound 1, reference compound] | 6.5 µM |  | 1.7 µM | 4.1 µM | 

Now from value to compound, other results behind:

Row | IC50 (HCT116) | melting point | IC50 (RPMI-8226; Homo sapiens) | IC50 (HL60) | SMILES | further results
6 |  | 128 to 129 °C |  |  | O=C(CCCCCCC(=O)N1CCc2c(nc(-c3cccs3)nc2-c2cccs2)C1)NO [Compound 8g, 8-(2,4-Di(thiophen-2-yl)-5,8-dihydropyrido [3,4-d]pyrimidin-7(6H)-yl)-N-hydroxy-8-oxooctanamide] | 
7 |  | 145 to 146 °C |  |  | O=C(CCCCCCC(=O)N1CCc2c(nc(-c3ccc(C(F)(F)F)cc3)nc2-c2ccc(C(F)(F)F)cc2)C1)NO [Compound 8h, 8-(2,4-Bis(4-(trifluoromethyl)phenyl)-5,8-dihydropyrido [3,4-d]pyrimidin-7(6H)-yl)-N-hydroxy-8-oxooctanamide] | Selectivity Index (HDAC6; HDAC6 against HDAC1): 26; IC50 (HDAC6; duplicate, SD < 15%): 0.0215 µM; IC50 (HDAC1): 0.551 µM
8 |  | 123 to 124 °C |  |  | O=C(CCCCCCC(=O)N1CCc2c(nc(-c3ccsc3)nc2-c2ccsc2)C1)NO [Compound 8e, 8-(2,4-Di(thiophen-3-yl)-5,8-dihydropyrido [3,4-d]pyrimidin-7(6H)-yl)-N-hydroxy-8-oxooctanamide] | 
9 |  | 104 to 106 °C |  |  | O=C(CCCCCCC(=O)N1CCc2c(nc(-c3ccoc3)nc2-c2ccoc2)C1)NO [Compound 8d, 8-(2,4-Di(furan-3-yl)-5,8-dihydropyrido [3,4-d]pyrimidin-7(6H)-yl)-N-hydroxy-8-oxooctanamide] | 
